Measured values taken from article PMC5748433, “Study on the effect of EMD386088, a 5-HT6 receptor partial agonist, in enhancing the anti-immobility action of some antidepressants in rats” (Naunyn-Schmiedeberg's Archives of Pharmacology, 2017).

Test system: rats
Assay: Open field (OF) test in rats, locomotor/exploratory activity
Assay type: in vivo, rat
Details: 5-min session, mean ± SEM
Description: All drugs were dissolved in distilled water immediately before administration in a volume of 2 mL/kg. All the compounds were administered intraperitoneally (i.p.). […] Control animals received vehicle according to the same schedule.
The experiment was performed using Motor Monitor System (Campden Instruments, Ltd., UK) consisted of two SmartFrame Open Field stations (40 × 40 × 38 cm) with 16 × 16 beams, located in sound attenuating chambers and connected to PC software by control chassis. Individual vehicle- or drug-injected animals were gently placed in the center of the station. An automated motor monitor system recorded ambulation (the number of crossings in X and Y axis), the number of rearing episodes, and total distance covered by a rat for 5 min.
The data of behavioral studies were evaluated using two-way analysis of variance (ANOVA) followed by Bonferroni’s post hoc test, p < 0.05 was considered significant.

[1] = 10 mg/kg i.p. (s-citalopram 30 min, moclobemide and bupropion 60 min before test)
[2] = 15 mg/kg i.p. 30 min before test

| Structure (SMILES) | Exploratory activity Ambulation X [1] | Exploratory activity Ambulation Y [1] | Exploratory activity Rearings [1] | Exploratory activity Total distance (cm) [1] | Exploratory activity Ambulation Y [2] | Exploratory activity Rearings [2] | Exploratory activity Total distance (cm) [2] |
| --- | --- | --- | --- | --- | --- | --- | --- |
| CC(NC(C)(C)C)C(=O)c1cccc(Cl)c1 (centres unmarked) [bupropion] | 284 ± 31 | 301 ± 35 | 83 ± 9 | 3083 ± 229 cm | – | – | – |
| CN(C)CCCN1c2ccccc2CCc2ccccc21 [imipramine] | – | – | – | – | 203 ± 41 | 54 ± 3 | 2212 ± 332 cm |
| O=C(NCCN1CCOCC1)c1ccc(Cl)cc1 [moclobemide] | 200 ± 26 | 192 ± 23 | 62 ± 3 | 2160 ± 183 cm | – | – | – |
| CN(C)CCC[C@@]1(c2ccc(F)cc2)OCc2cc(C#N)ccc21 [s-citalopram] | 197 ± 15 | 179 ± 19 | 64 ± 12 | – | – | – | – |
